The assay addresses T1, MAGL protein (Homo sapiens, UniProt Q99685).
T1 sequence (Q99685 1-303): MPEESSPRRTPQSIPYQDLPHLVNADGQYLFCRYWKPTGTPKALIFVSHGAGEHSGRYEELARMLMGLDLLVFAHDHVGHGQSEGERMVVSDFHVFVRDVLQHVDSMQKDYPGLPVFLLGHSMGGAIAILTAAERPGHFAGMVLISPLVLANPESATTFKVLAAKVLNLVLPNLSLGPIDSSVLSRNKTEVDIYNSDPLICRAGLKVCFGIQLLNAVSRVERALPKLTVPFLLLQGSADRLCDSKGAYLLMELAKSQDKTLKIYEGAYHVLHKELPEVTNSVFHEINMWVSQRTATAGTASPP
Kind of assay: 2-AG assay: MAGL inhibitory activity by hydrolysis of 2-arachidonoylglycerol to arachidonic acid, followed by mass spectrometry. The note with it: 8 μM 2-arachidonoylglycerol, 15 min preincubation, 30 min reaction at RT, RapidFire MS readout. The format is biochemical. The gist of the method:
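MAGL was preincubated 15 min at RT with compound (12.5 to […], 3-fold steps) in 50 mM TRIS, 1 mM EDTA, 0.01% Tween-20, 2.5% DMSO. The reaction ran 30 min at RT with 8 μM 2-AG. Arachidonic acid was quantified by RapidFire SPE-MS/MS against a d8-arachidonic acid internal standard.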

`O=C(N1CC2(CCC(Cc3ccc(C(F)(F)F)cn3)CC2)C1)N1CC2(CC(c3nc(C4COC4)n[nH]3)C2)C1` [compound 814]: the half-inhibitory concentration (IC50) – broadly, the concentration needed to halve the response being measured – came out at 60.3 nM.

Take `CC(C)(O)Cn1nc(C2CCN(C(=O)N3CC4(CC(c5nnc(C6CC6)[nH]5)C4)C3)CC2)c2cc(Cl)ccc21` [Example 416, [4-[5-chloro-1-(2-hydroxy-2-methyl-propyl)indazol-3-yl]piperidino]-[6-(5-cyclopropyl-4H-1,2,4-triazol-3-yl)-2-azaspiro[3.3]heptan-2-yl]methanone]: the IC50 was determined as 13.3 nM.

`O=C(N1CC2(CC(COc3ccc(C(F)(F)F)cn3)C2)C1)N1CC2(CC(c3nc(C4CC4)n[nH]3)C2)C1` [compound 970] came in with an IC50 of 0.16 nM.

Molecule `O=C(N1CC(c2ccc(-n3cnc(C4CC4)n3)cc2)C1)N1CC2(CC(c3nnc(C4CC4)[nH]3)C2)C1` [compound 934] returned an IC50 of 4.44 nM.

With `Cc1cc([C@@H](C)C2CC3(C2)CN(C(=O)N2CC4(CC(c5nc(C6CC6)n[nH]5)C4)C2)C3)ncc1C(F)(F)F` [compound 966], the IC50 worked out at 0.14 nM.

The molecule `O=C(N1CC(c2ccc(C3(C(F)(F)F)CC3)cc2)C1)N1CC2(CC(c3nnc(C(O)C(F)(F)F)[nH]3)C2)C1` (stereo not shown) [compound 228] yielded a concentration for half-maximal inhibition (IC50) of 14.8 nM.

As for `O=C(N1CC2(CC(Cc3cc(F)cc(C(F)(F)F)c3)C2)C1)N1CC2(CC(c3nnc(C4(O)CC4)[nH]3)C2)C1` [compound 122], the half-inhibitory concentration (IC50) is under 0.05 nM.

`CC(C)(C)c1noc(CN2CC3(C2)CN(C(=O)N2CC4(CC(c5nnc(C6CC6)[nH]5)C4)C2)C3)n1` [compound 886] showed an IC50 of 6.38 nM.

`Cn1cc(CC2CC3(C2)CN(C(=O)N2CC4(CC(c5nc(C6CC6)n[nH]5)C4)C2)C3)c(C(F)(F)F)n1` [compound 770] showed an IC50 of 0.23 nM.

`O=C(N1CC(c2ccc(C3(S(=O)(=O)C(F)(F)F)CC3)cc2)C1)N1CC2(CC(c3nc(C4CC4)n[nH]3)C2)C1` [compound 968]: the IC50 worked out at 0.05 nM. This IC50 lies about 4.6-fold lower than the previous one.

In turn, `O=C(N1CC2(CC(Cn3ncnc3C(F)(F)F)C2)C1)N1CC2(CC(c3nc(C4CC4)n[nH]3)C2)C1` [compound 444] registered a half-maximal inhibitory concentration (IC50) of 3.25 nM.

`CC(C)(C)c1ncc(CN2CC3(C2)CN(C(=O)N2CC4(CC(c5nc(C6CC6)n[nH]5)C4)C2)C3)s1` [compound 415] gave an IC50 of 4.43 nM.

Turning to `Cn1nc(CN2CC3(C2)CN(C(=O)N2CC4(CC(c5nc(C6CC6)n[nH]5)C4)C2)C3)cc1C(F)(F)F` [compound 681], the 50% inhibitory concentration (IC50) came out at 7.41 nM.

The molecule `O=C(N1CC(C23CC(Oc4cnc(C(F)(F)F)cn4)(C2)C3)C1)N1CC2(CC(c3nc(C4(O)CC4)n[nH]3)C2)C1` [compound 552] came in with an IC50 of 26.2 nM.

In the case of `O=C(N1CC2(CC(Oc3cc(C(F)(F)F)ccn3)C2)C1)N1CC2(CC(c3nc(C4CC4)n[nH]3)C2)C1` [compound 969], the concentration for half-maximal inhibition (IC50) was 0.42 nM.

`CS(=N)(=O)c1ccc(CC2CC3(C2)CN(C(=O)N2CC4(CC(c5nc(C6CC6)n[nH]5)C4)C2)C3)cc1C(F)(F)F` (stereo not shown) [compound 952] had a half-inhibitory concentration (IC50) of 1.74 nM.

Consider `O=C(N1CC(c2ccc(N3CC4(CCCO4)C3)nc2)C1)N1CC2(CC(c3nnc(C4CC4)[nH]3)C2)C1` [compound 293], for which 11.1 nM corresponded to half-maximal inhibition (IC50). Compared with the last molecule, the IC50 is about 6.4-fold higher.

Turning to `O=C(N1CC2(CC(Cc3cncc(C(F)(F)F)c3)C2)C1)N1CC2(CC(c3nc(C4CC(F)(F)C4)n[nH]3)C2)C1` [compound 545], the midpoint of inhibition, the IC50, lay at 46.9 nM. This IC50 is about 4.2-fold higher than that of the molecule before.

Consider `O=C(N1CC2(CC(c3nnc(C4CC4)[nH]3)C2)C1)N1CC2(CN(Cc3ccc(F)cc3F)C2)C1` [compound 156], for which the IC50 was determined as 4.08 nM.

For `O=C(N1CC2(CC(CNCC3(C(F)(F)F)CC3)C2)C1)N1CC2(CC(c3nnc(C4CC4)[nH]3)C2)C1` [compound 352], the concentration for half-maximal inhibition (IC50) turned out to be 3.94 nM.

The molecule `O=C(N1CC2(CC(c3cncc(F)c3)C2)C1)N1CC2(CC(c3nnc(C4CC4)[nH]3)C2)C1` [compound 497] displayed a 50% inhibitory concentration (IC50) of 22.3 nM. This IC50 is about 5.7-fold higher than that of the molecule before.

The molecule `O=C(N1CC2(CC(Cc3ccnc(C(F)(F)F)n3)C2)C1)N1CC2(CC(c3nc(C4CC4)n[nH]3)C2)C1` [compound 402] had an IC50 of 0.95 nM.

The molecule `CC(C)(C)c1c[nH]c(CN2CC3(C2)CN(C(=O)N2CC4(CC(c5nc(C6CC6)n[nH]5)C4)C2)C3)n1` [compound 659] gave a half-inhibitory concentration (IC50) of 40.9 nM.

Regarding `CS(=O)(=O)c1cc(F)cc(CC2CC3(C2)CN(C(=O)N2CC4(CC(c5nnc(C6(O)CC6)[nH]5)C4)C2)C3)c1` [compound 19], half-maximal inhibition (IC50) was put at 4.81 nM. Compared with the last molecule, the IC50 is about 8.5-fold lower.

Take `O=C(N1CC(C23CC(NCC4(C(F)(F)F)CC4)(C2)C3)C1)N1CC2(CC(c3nc(C4(O)CC4)n[nH]3)C2)C1` [compound 825]: the IC50 came out at 4.37 nM.

Molecule `O=C(N1CC2(CC(Cn3cc(C(F)(F)F)cn3)C2)C1)N1CC2(CC(c3nc(C4COC4)n[nH]3)C2)C1` [compound 634] registered a concentration for half-maximal inhibition (IC50) of 104 nM. This IC50 is about 24-fold higher than that of the molecule before.

In turn, `O=C(N1CC2(CC(Cc3cc(C(F)(F)F)nn3CC(F)(F)F)C2)C1)N1CC2(CC(c3nc(C4CC4)n[nH]3)C2)C1` [compound 679] came in with an IC50 of 0.15 nM.

Consider `NC1(c2nnc(C3CC4(C3)CN(C(=O)N3CC5(CC(Cc6ccc(C(F)(F)F)cn6)C5)C3)C4)[nH]2)CC1` [Example 948, [6-[5-(1-aminocyclopropyl)-4H-1,2,4-triazol-3-yl]-2-azaspiro[3.3]heptan-2-yl]-[6-[[5-(trifluoromethyl)-2-pyridyl]methyl]-2-azaspiro[3.3]heptan-2-yl]methanone], for which the concentration for half-maximal inhibition (IC50) was 2.35 nM.

Molecule `N=S(=O)(c1ccc(CC2CC3(C2)CN(C(=O)N2CC4(CC(c5nc(C6CC6)n[nH]5)C4)C2)C3)cc1)C(F)(F)F` (stereo not shown) [compound 2] had an IC50 of 0.19 nM.

In turn, `O=C(N1CC2(CCC(Oc3ncc(C(F)(F)F)cn3)CC2)C1)N1CC2(CC(c3nnc(C4CC4)[nH]3)C2)C1` [compound 134] came in with a half-inhibitory concentration (IC50) of 1.89 nM. This IC50 is about 9.9-fold higher than that of the molecule before.

In the case of `Cn1nc(CC2CC3(C2)CN(C(=O)N2CC4(CC(c5nc(C6(O)CC6)n[nH]5)C4)C2)C3)cc1C(F)(F)F` [compound 491], the IC50 was 0.34 nM. This IC50 is about 5.6-fold lower than that of the molecule before.

In turn, `O=C(N1CC2(CC(OCC3(C(F)(F)F)CC3)C2)C1)N1CC2(CC(c3nnc(C4(O)CC4)[nH]3)C2)C1` [compound 69] returned an IC50 of 21.3 nM.

As to `O=C(N1CC2(CC(c3nnc(C4CC4)[nH]3)C2)C1)N1CC2(C1)CN(c1ccc(C(F)(F)F)cn1)C2` [compound 682], the concentration for half-maximal inhibition (IC50) was 38.4 nM.

Molecule `O=C(N1CC2(CC(c3nnc(C4CC4)[nH]3)C2)C1)N1CC2(C1)CN(S(=O)(=O)c1ccc(C(F)(F)F)cc1)C2` [compound 103] gave an IC50 of 25 nM.

As to `O=C(N1CC2(CC(Cc3cnc(C(F)(F)F)cn3)C2)C1)N1CC2(CC(c3nc(C4CC(F)(F)C4)n[nH]3)C2)C1` [compound 465], the IC50 stood at 114 nM.

On to `N#Cc1cc(CC2CC3(C2)CN(C(=O)N2CC4(CC(c5nc(C6COC6)n[nH]5)C4)C2)C3)ccc1C(F)(F)F` [compound 808], for which 0.29 nM corresponded to half-maximal inhibition (IC50). Compared with the last molecule, the IC50 is about 390-fold lower.

For the molecule `O=C(N1CC2(CC(NC(=O)C3(C(F)(F)F)CC3)C2)C1)N1CC2(CC(c3nnc(C4CC4)[nH]3)C2)C1` [compound 222], the IC50 turned out to be 40.7 nM.

`O=C(N1CC(c2ccc(Oc3ccccc3Cl)nc2)C1)N1CC2(CC(c3nnc(C4(O)CC4)[nH]3)C2)C1` [compound 374] returned a half-maximal inhibitory concentration (IC50) of 1.61 nM. This IC50 is about 25-fold lower than that of the molecule before.

`O=C(N1CC2(CC(c3nc(C4CC4)n[nH]3)C2)C1)N1CC2(CN(Cc3cc(C(F)(F)F)on3)C2)C1` [compound 609] displayed a half-inhibitory concentration (IC50) of 8.32 nM.

Molecule `Cn1ncc(CC2CC3(C2)CN(C(=O)N2CC4(CC(c5nc(C6CC(F)(F)C6)n[nH]5)C4)C2)C3)c1C(F)(F)F` [compound 530] showed a half-maximal inhibitory concentration (IC50) of 13.9 nM.

`O=C(N1CC2(CC(Cc3cncc(S(=O)(=O)C(F)(F)F)c3)C2)C1)N1CC2(CC(c3nc(C4CC4)n[nH]3)C2)C1` [compound 731]: the IC50 worked out at 0.18 nM. This IC50 is about 77-fold lower than that of the molecule before.

Regarding `O=C(N1CC2(CC(Cc3ccc(S(=O)(=O)C(F)(F)F)cn3)C2)C1)N1CC2(CC(c3nc(C4(F)CC4)n[nH]3)C2)C1` [compound 652], the IC50 was 0.19 nM.

Regarding `O=C(N1CC2(CC(Cc3ccc(OC(F)(F)F)nc3)C2)C1)N1CC2(CC(c3nc(C4COC4)n[nH]3)C2)C1` [compound 769], the half-maximal inhibitory concentration (IC50) amounted to 11.8 nM.

For `Cc1cc(C2CC2)n(CC2CC3(C2)CN(C(=O)N2CC4(CC(c5nc(C6CC6)n[nH]5)C4)C2)C3)n1` [compound 846], the IC50 was 0.78 nM. Against the preceding molecule, the IC50 is about 15-fold lower.

With `Cc1sc(CN2CC3(C2)CN(C(=O)N2CC4(CC(c5nc(C6CC6)n[nH]5)C4)C2)C3)nc1C(F)(F)F` [compound 458], 22.8 nM corresponded to half-maximal inhibition (IC50).

`N#Cc1ccc(CC2CC3(C2)CN(C(=O)N2CC4(CC(c5nc(C6CC(F)(F)C6)n[nH]5)C4)C2)C3)c(F)c1` [compound 486]: the half-maximal inhibitory concentration (IC50) was determined as 10.6 nM.

Turning to `O=C(N1CC2(CC(Cc3nc(C(F)(F)F)co3)C2)C1)N1CC2(CC(c3nnc(C4CC4)[nH]3)C2)C1` [compound 61], the concentration for half-maximal inhibition (IC50) is 0.66 nM.

`O=C(N1CC(CNS(=O)(=O)c2ccc(C(F)(F)F)cc2)C1)N1CC2(CC(c3nnc(C4CC4)[nH]3)C2)C1` [compound 209] gave a 50% inhibitory concentration (IC50) of 316 nM. Against the preceding molecule, the IC50 is about 480-fold higher.

Molecule `O=C(N1CC2(CC(c3nnc(C4CC4)[nH]3)C2)C1)N1CC2(C1)CN(S(=O)(=O)c1cc(F)cc(C(F)(F)F)c1)C2` [compound 101] returned a half-inhibitory concentration (IC50) of 3.7 nM.

With `N#Cc1cc(CC2CC3(C2)CN(C(=O)N2CC4(CC(c5nc(C6CC(F)(F)C6)n[nH]5)C4)C2)C3)cc(C(F)(F)F)c1` [compound 579], the midpoint of inhibition, the IC50, lay at 24 nM.

Molecule `O=C(N1CC2(CC(c3nc(C4CC4)n[nH]3)C2)C1)N1CC2(CN(Cc3cnc(C(F)F)s3)C2)C1` [compound 651] gave an IC50 of 9.48 nM.

`N#Cc1cc(CC2CC3(C2)CN(C(=O)N2CC4(CC(c5nnc(C6CC6)[nH]5)C4)C2)C3)ccc1C(F)(F)F` [compound 26]: the IC50 was 0.02 nM. Against the preceding molecule, the IC50 is about 470-fold lower.
